Source: ChEMBL document CHEMBL3727350, “Agents and methods for treating ischemic and other diseases” (2014)
Calls of active or inactive are those of the source. The rule behind the calls is not given here.

How the values were obtained:
[1] = Inhibition of cell proliferation of human DMS53 cells at 10 uM incubated for 48 to 96 hrs; assay type: functional; conditions: DMS-53
[2] = test system: H9c2; experiment: Toxicity against rat H9c2 cells at 5 uM; assay type: cell-based; conditions: h9c2, 5 µM
[3] = Inhibition of cell proliferation of mouse NIH/3T3 cells at 1.25 to 10 uM incubated for 72 hrs by propidium iodide staining assay; assay type: cell-based; conditions: nih3t3, 72 h
[4] = molecular target: Transient receptor potential cation channel subfamily M member 7 (Rattus norvegicus) (UniProt Q925B3); experiment: Inhibition of TRPM7 in cultured rat retinal ganglion cells exposed to oxygen glucose deprivation condition for 3 hrs assessed as protection against TRPM7-mediated cell death at by propidium iodide uptake assay; set-up: scale not given: the % may be the effect or the level left
Sequence of Transient receptor potential cation channel subfamily M member 7 (Rattus norvegicus) (Q925B3 whole entry): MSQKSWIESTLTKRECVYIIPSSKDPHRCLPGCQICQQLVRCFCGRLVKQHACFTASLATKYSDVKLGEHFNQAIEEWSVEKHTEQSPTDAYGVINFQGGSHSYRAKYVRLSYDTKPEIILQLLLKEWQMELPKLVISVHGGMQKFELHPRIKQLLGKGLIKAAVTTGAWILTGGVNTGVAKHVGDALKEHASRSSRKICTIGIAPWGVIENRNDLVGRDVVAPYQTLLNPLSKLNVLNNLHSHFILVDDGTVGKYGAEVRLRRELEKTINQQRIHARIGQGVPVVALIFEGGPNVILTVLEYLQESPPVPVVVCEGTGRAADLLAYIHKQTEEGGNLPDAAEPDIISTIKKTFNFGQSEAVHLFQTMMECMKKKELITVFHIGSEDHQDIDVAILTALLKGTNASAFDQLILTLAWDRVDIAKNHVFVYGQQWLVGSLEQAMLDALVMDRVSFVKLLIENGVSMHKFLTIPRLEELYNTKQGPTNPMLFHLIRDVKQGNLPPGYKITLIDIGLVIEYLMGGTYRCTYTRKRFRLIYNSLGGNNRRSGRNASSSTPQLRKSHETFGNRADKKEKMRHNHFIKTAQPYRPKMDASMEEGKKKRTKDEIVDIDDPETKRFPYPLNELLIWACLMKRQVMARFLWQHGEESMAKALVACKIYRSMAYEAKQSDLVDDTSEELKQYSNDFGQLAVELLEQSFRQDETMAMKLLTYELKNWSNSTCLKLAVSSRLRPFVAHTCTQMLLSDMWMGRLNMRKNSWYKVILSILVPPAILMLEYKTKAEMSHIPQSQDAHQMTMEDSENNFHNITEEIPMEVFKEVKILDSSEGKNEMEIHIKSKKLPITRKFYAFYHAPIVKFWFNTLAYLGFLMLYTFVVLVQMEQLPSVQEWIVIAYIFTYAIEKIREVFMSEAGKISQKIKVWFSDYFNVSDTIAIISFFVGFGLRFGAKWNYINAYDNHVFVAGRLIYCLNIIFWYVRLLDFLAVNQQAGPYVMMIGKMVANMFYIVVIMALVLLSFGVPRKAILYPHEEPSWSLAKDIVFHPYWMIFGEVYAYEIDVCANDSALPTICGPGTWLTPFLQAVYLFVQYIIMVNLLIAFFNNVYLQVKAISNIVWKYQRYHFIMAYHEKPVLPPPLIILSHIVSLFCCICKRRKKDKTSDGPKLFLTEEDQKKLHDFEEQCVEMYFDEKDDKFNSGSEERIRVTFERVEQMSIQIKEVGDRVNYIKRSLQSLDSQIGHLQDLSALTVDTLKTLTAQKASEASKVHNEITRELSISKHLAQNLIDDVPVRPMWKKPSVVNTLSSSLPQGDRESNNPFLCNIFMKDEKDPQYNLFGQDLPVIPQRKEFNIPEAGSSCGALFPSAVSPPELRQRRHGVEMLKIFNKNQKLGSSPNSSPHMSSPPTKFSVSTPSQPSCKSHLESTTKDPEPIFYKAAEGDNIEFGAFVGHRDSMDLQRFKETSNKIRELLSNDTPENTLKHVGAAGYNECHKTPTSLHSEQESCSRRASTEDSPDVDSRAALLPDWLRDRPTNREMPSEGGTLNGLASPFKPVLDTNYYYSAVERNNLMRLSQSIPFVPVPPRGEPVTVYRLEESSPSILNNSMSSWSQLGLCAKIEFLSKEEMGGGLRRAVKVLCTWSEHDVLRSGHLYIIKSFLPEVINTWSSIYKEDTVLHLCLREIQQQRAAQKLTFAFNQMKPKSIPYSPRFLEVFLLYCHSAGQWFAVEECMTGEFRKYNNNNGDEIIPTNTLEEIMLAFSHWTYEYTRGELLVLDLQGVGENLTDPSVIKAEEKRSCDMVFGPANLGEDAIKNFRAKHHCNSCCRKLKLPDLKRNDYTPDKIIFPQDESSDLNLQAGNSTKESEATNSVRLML

[5] = molecular target: Transient receptor potential cation channel subfamily M member 7 (Mus musculus) (UniProt Q923J1); experiment: Inhibition of TRPM7 in mouse mouse primary cortical neurons exposed to 2 hrs oxygen glucose deprivation condition assessed as reduction in TRPM7-mediated anoxic cell death measured after 20 hrs by propidium iodide uptake assay; assay type: cell-based; conditions: Cerebral cortex neuron
Sequence of Transient receptor potential cation channel subfamily M member 7 (Mus musculus) (Q923J1 whole entry): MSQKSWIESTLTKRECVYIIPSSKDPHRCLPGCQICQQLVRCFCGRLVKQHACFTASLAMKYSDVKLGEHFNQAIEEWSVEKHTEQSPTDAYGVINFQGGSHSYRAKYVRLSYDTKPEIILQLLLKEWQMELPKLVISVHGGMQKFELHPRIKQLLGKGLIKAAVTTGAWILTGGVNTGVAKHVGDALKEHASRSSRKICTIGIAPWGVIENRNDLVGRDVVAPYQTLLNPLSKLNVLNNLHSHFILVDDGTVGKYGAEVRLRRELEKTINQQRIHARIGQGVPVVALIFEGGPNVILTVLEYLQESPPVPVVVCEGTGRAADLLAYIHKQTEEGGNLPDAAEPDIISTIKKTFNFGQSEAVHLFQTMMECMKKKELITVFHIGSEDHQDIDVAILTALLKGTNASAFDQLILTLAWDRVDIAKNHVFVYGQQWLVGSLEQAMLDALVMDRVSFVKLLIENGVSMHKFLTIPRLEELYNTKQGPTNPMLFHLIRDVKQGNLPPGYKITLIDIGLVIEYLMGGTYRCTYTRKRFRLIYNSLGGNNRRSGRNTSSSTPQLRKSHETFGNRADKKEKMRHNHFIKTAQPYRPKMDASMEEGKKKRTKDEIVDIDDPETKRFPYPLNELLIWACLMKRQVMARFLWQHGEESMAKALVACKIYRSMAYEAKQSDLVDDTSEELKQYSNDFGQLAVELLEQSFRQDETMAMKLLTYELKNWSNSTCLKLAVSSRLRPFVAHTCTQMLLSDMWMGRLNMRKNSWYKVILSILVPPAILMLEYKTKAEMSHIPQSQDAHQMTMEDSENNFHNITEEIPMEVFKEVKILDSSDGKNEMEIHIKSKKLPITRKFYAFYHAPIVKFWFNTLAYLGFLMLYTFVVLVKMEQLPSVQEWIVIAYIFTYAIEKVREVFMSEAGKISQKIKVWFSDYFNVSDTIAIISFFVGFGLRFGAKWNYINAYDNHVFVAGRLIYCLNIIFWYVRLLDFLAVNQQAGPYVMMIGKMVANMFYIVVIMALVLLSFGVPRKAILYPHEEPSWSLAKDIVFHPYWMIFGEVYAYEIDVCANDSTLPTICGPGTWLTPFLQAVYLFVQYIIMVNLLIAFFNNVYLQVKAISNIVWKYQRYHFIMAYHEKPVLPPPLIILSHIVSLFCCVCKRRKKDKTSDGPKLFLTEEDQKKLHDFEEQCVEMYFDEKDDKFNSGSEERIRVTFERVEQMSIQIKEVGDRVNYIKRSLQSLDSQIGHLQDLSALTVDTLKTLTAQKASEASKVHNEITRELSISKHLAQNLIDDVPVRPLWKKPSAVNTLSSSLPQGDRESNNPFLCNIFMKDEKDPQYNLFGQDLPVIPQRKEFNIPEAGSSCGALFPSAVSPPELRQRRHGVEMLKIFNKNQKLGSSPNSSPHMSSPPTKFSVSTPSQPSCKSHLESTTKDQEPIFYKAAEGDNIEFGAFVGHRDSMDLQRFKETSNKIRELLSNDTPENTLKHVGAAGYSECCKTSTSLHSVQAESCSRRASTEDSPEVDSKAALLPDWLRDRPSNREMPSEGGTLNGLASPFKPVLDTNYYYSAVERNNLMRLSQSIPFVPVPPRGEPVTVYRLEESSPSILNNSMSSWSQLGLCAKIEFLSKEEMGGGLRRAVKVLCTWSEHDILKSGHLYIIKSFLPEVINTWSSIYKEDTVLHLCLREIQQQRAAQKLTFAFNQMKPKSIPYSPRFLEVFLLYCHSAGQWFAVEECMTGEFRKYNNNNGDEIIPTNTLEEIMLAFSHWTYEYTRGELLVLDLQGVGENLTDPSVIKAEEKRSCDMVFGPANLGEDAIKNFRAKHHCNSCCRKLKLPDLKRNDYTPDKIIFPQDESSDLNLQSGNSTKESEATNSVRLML

[6] = test system: MDA-MB-231; experiment: Inhibition of cell proliferation of human MDA-MB-231 cells at 1.25 to 10 uM incubated for 72 hrs by SRB assay; assay type: functional, cell-based
[7] = test system: MDA-MB-231; experiment: Inhibition of cell proliferation of human MDA-MB-231 cells at 10 uM incubated for 48 to 96 hrs; assay type: functional
[8] = molecular target: Transient receptor potential cation channel subfamily M member 7 (Rattus norvegicus) (UniProt Q925B3); experiment: Inhibition of TRPM7 in Sprague-Dawley rat retinal explants dissociated and subjected to 1 hr oxygen-glucose deprivation assessed as reduction in retinal cell death at 1 and 5 uM
[9] = organism: Mus musculus; experiment: Inhibition of sodium channel in mouse cortical neurons assessed as effect on Na+ currents
[10] = test system: B16-F10; experiment: Inhibition of cell proliferation of mouse B16F10 cells at 1.25 to 10 uM incubated for 72 hrs by SRB assay; assay type: functional, cell-based
[11] = test system: SW13; experiment: Inhibition of cell proliferation of human SW13 cells at 1.25 to 10 uM incubated for 72 hrs by SRB assay; assay type: functional, cell-based
[12] = Inhibition of cell proliferation of mouse B16F10 cells at 10 uM incubated for 48 to 96 hrs; assay type: functional; conditions: B16-F10
[13] = test system: HeLa; experiment: Inhibition of cell proliferation of human HeLa cells at 10 uM incubated for 48 to 96 hrs; assay type: functional
[14] = molecular target: Transient receptor potential cation channel subfamily M member 7 (Mus musculus) (UniProt Q923J1); experiment: Inhibition of TRPM7 in mouse primary neuronal cells exposed to oxygen glucose deprivation condition for 1 to 3 hrs assessed as reduction in TRPM7-mediated anoxic cell death dosed after oxygen glucose deprivation condition by propidium iodide uptake assay; conditions: Primary neuron
[15] = test system: MCF7; experiment: Inhibition of cell proliferation of human MCF7 cells at 10 uM incubated for 48 to 96 hrs; assay type: functional
[16] = molecular target: Transient receptor potential cation channel subfamily M member 7 (Mus musculus) (UniProt Q923J1); experiment: Inhibition of Tet-induced Flag-tagged mouse TRPM7 expressed in HEK293 cells assessed as reduction in channel currents at 0.3 to 30 uM by whole cell patch clamp assay; assay type: cell-based
[17] = organism: Mus musculus; experiment: Inhibition of calcium channel in mouse cortical neurons assessed as effect on Ca2+ currents; assay type: functional
[18] = Inhibition of cell proliferation of mouse B16-F1 cells at 10 uM incubated for 48 to 96 hrs; assay type: functional
[19] = test system: B16-F1; experiment: Inhibition of cell proliferation of mouse B16-F1 cells at 1.25 to 10 uM incubated for 72 hrs by SRB assay; assay type: functional, cell-based
[20] = molecular target: Transient receptor potential cation channel subfamily M member 7 (Rattus norvegicus) (UniProt Q925B3); experiment: Inhibition of TRPM7 in rat H9C2 cells exposed to oxygen glucose deprivation condition for 1 to 6 hrs assessed as reduction in TRPM7-mediated anoxic cell death in presence of 1 uM nifedipine by propidium iodide uptake assay; assay type: cell-based
[21] = molecular target: Transient receptor potential cation channel subfamily M member 7 (Rattus norvegicus) (UniProt Q925B3); experiment: Inhibition of TRPM7 in Sprague-Dawley rat retinal explants subjected to 1 hr oxygen-glucose deprivation assessed as reduction in retinal ischemia at 5 uM
[22] = molecular target: Transient receptor potential cation channel subfamily M member 7 (Mus musculus) (UniProt Q923J1); experiment: Inhibition of TRPM7 in mouse primary neuronal cells exposed to oxygen glucose deprivation condition for 1 to 3 hrs assessed as reduction in TRPM7-mediated anoxic cell death dosed before oxygen glucose deprivation condition by propidium iodide uptake assay; conditions: Primary neuron
[23] = organism: Mus musculus; experiment: Inhibition of potassium channel in mouse cortical neurons assessed as reduction in potassium currents
[24] = molecular target: Transient receptor potential cation channel subfamily M member 7 (Mus musculus) (UniProt Q923J1); experiment: Inhibition of Tet-induced Flag-tagged mouse TRPM7 expressed in HEK293 cells assessed as inhibition of channel-mediated cell death in presence of Mg2+ incubated for 24 to 48 hrs by propidium iodide uptake assay; assay type: cell-based; set-up: concentration or dose not given beside the values; conditions: concentration not given here
[25] = test system: H9c2; experiment: Toxicity against rat H9c2 cells at 10 uM; assay type: cell-based; conditions: h9c2, 10 µM
[26] = test system: Y79; experiment: Inhibition of cell proliferation of human Y79 cells at 10 uM incubated for 48 to 96 hrs; assay type: functional
[27] = molecular target: Transient receptor potential cation channel subfamily M member 7 (Rattus norvegicus) (UniProt Q925B3); experiment: Inhibition of TRPM7 in rat retinal explants exposed to oxygen glucose deprivation condition for 1 hr assessed as protection against TRPM7-mediated cell death at by propidium iodide uptake assay
[28] = molecular target: Transient receptor potential cation channel subfamily M member 7 (Rattus norvegicus) (UniProt Q925B3); experiment: Inhibition of TRPM7 in rat H9C2 cells assessed as reduction in channel currents at 0.3 to 30 uM by whole cell patch clamp assay; assay type: cell-based
[29] = test system: U2OS; experiment: Inhibition of cell proliferation of human U2OS cells at 10 uM incubated for 48 to 96 hrs; assay type: functional
[30] = test system: SW13; experiment: Inhibition of cell proliferation of human SW13 cells at 10 uM incubated for 48 to 96 hrs; assay type: functional

With `O=C(Nc1ccc(F)cc1)C(Sc1ccc(Cl)cc1)c1ccccc1` (stereo not given) the inhibition at 10 µM [1] was greater than 20%, the Activity [2] was “Non-toxic” and the Activity [3] was “Non-toxic”. The Activity [4] was 66%, the inhibition [5] was “Active” and the inhibition [6] was “Active”. The inhibition at 10 µM [7] was greater than 20%, the inhibition [8] was “Active” and the inhibition [9] was “inactive”. The inhibition [10] was “Active”, the inhibition [11] was “Active” and the inhibition at 10 µM [12] was greater than 20%. For the same compound, the inhibition at 10 µM [13] was greater than 20%, the inhibition [14] was “Active” and the inhibition at 10 µM [15] was greater than 20%. The inhibition [16] was “Active”, the inhibition [17] was “inactive” and the inhibition at 10 µM [18] was greater than 20%. The inhibition [19] was “Active”, the inhibition [20] was “Active” and the inhibition [21] was “Active”. For the same compound, the inhibition [22] was “Active”, the inhibition [23] was “Active” and the inhibition [24] was 80%. The Activity [25] was “Toxic”, the inhibition at 10 µM [26] was greater than 20% and the inhibition [27] was “Active”. The inhibition [28] was “Active”, the inhibition at 10 µM [29] was greater than 20% and the inhibition at 10 µM [30] was greater than 20%.
